Where only a bound is given, the exact number is not on record here.

Eight compounds from patent US20220340597A1, “HEXAHYDRO-1H-PYRAZINO[1,2-A]PYRAZINE COMPOUNDS FOR THE TREATMENT OF AUTOIMMUNE DISEASE” (Hoffmann-La Roche Inc., priority 2019, published 2022) can be followed below.

One series has as its target T1, human TLR9 (Homo sapiens, UniProt Q9NR96).
T1 construct: host or cells: HEK293 (HEK-Blue hTLR9)
T1 sequence (Q9NR96 26-1032): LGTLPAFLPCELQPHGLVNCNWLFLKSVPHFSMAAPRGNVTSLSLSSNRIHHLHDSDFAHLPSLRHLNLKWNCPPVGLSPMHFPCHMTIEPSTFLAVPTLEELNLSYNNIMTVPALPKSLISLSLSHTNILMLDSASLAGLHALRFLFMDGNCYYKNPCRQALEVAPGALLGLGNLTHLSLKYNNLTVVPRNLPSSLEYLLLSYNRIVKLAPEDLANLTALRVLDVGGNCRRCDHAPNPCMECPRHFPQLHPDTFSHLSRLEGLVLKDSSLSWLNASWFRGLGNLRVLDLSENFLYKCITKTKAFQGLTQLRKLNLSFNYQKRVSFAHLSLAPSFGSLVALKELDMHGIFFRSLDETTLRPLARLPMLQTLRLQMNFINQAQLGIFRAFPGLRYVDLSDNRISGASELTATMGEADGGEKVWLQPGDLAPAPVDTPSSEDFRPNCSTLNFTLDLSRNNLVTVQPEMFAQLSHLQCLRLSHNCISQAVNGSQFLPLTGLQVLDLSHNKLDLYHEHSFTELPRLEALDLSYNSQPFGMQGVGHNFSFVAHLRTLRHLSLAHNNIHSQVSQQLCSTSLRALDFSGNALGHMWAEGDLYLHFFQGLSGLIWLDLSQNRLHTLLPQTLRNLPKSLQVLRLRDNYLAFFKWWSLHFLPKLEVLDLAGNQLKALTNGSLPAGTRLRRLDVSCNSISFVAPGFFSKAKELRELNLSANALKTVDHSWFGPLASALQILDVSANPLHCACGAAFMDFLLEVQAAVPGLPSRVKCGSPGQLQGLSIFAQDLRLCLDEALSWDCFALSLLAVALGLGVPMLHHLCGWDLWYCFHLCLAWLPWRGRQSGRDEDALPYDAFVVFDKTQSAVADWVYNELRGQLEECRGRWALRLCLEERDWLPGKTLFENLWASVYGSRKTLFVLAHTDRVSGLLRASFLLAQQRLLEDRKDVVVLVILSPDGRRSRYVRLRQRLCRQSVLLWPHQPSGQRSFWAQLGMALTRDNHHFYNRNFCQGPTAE
Put plainly: HEK293-Blue-hTLR-9 cells assay. In kind it is cell-based. Conditions: HEK293-Blue-hTLR9 cells, ODN2006 stimulation, 20 hrs, SEAP reporter; read-out: HEK/hTLR9 IC50. As to the method:
The following tests were carried out in order to determine the activity of the compounds of formula (I) and (Ia) in HEK293-Blue-hTLR-7/8/9 cells assay.
HEK293-Blue-hTLR-9 Cells Assay:
A stable HEK293-Blue-hTLR-9 cell line was purchased from InvivoGen (Cat. #: hkb-htlr9, San Diego, Calif., USA). These cells were originally designed for studying the stimulation of human TLR9 by monitoring the activation of NF-κB. A SEAP (secreted embryonic alkaline phosphatase) reporter gene was placed under the control of the […] minimal promoter fused to five NF-κB and AP-1-binding sites. The SEAP was induced by activating NF-κB and AP-1 via stimulating HEK-Blue hTLR9 cells with TLR9 ligands. Therefore, the reporter expression was declined by TLR9 antagonist under the stimulation of a ligand, such as ODN2006 (Cat. #: tlr1-2006-1, Invivogen, San Diego, Calif., USA), for incubation of 20 hrs. The cell culture supernatant SEAP reporter activity was determined using QUANTI-Blue™ kit (Cat. #: rep-qb1, Invivogen, San Diego, Calif., USA) at a wavelength of 640 nm, a detection medium that turns purple or blue in the presence of alkaline phosphatase.
Then 20 μL of the supernatant from each well was incubated with 180 μL Quanti-blue substrate solution at 37° C. for 2 h and the absorbance was read at 620-655 nm using a spectrophotometer. The signaling pathway that TLR9 activation leads to downstream NF-κB activation has been widely accepted, and therefore similar reporter assay was modified for evaluating TLR9 antagonist.

The next series deals with T2, hERG channel (Homo sapiens, UniProt Q12809).
T2 construct: expressed in transfected cells; host or cells: CHO (Chinese hamster ovary), CHOhERG
T2 sequence (Q12809 whole entry): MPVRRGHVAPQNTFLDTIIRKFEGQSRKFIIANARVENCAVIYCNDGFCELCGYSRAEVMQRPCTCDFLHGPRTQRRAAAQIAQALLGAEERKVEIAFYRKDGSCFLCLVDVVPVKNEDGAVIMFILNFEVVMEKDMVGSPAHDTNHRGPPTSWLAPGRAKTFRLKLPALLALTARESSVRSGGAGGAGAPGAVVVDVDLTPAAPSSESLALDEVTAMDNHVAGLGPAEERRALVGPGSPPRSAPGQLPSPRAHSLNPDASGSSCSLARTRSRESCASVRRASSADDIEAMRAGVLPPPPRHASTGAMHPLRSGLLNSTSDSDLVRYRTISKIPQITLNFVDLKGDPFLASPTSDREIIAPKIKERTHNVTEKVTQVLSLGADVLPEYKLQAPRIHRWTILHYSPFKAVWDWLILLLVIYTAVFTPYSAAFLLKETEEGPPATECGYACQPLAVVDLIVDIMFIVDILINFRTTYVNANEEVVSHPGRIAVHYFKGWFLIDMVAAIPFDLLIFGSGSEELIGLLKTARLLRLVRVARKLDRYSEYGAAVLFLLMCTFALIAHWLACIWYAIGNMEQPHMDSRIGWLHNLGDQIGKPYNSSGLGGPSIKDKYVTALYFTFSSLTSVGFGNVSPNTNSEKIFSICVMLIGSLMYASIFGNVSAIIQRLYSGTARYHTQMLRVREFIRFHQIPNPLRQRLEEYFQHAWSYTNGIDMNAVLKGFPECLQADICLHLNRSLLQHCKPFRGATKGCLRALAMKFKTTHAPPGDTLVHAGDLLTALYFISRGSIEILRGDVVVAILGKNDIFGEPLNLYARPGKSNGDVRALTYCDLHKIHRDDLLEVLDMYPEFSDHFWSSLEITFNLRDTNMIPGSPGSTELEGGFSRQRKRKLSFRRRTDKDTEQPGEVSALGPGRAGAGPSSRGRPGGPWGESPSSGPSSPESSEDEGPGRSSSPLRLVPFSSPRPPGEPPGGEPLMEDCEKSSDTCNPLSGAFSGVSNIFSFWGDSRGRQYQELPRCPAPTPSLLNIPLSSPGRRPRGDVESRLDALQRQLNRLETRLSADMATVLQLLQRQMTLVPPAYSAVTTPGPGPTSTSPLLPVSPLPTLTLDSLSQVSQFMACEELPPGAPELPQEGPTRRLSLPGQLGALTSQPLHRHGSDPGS
In words: hERG channel inhibition assay (patch-clamp, CHOhERG cells). The format is cell-based. Particulars: CHOhERG cells, whole-cell patch-clamp; for IC20: human, CHO cells stably expressing hERG (CHOhERG). As to the method:
hERG Channel Inhibition Assay:
The hERG K^+ channels were cloned in humans and stably expressed in a CHO (Chinese hamster ovary) cell line. CHOhERG cells were used for patch-clamp (voltage-clamp, whole-cell) experiments. Cells were stimulated by a voltage pattern to activate hERG channels and conduct IKhERG currents (rapid delayed outward rectifier potassium current of the hERG channel). After the cells were stabilized for a few minutes, the amplitude and kinetics of IKhERG were recorded at a stimulation frequency of 0.1 Hz (6 bpm). Thereafter, the test compound was added to the preparation at increasing concentrations. For each concentration, an attempt was made to reach a steady-state effect, usually, this was achieved within 3-10 min at which time the next highest concentration was applied. The amplitude and kinetics of IKhERG are recorded in each concentration of the drug which were compared to the control values (taken as 100%). (references: Redfern W S, Carlsson L, Davis A S, Lynch W G, MacKenzie I, Palethorpe S, Siegl P K, Strang I, Sullivan A T, Wallis R, Camm A J, Hammond T G. 2003; Relationships between preclinical cardiac electrophysiology, clinical QT interval prolongation and torsade de pointes for a broad range of drugs: evidence for a provisional safety margin in drug development. Cardiovasc. Res. 58:32-45, Sanguinetti M C, Tristani-Firouzi M. 2006; hERG potassium channels and cardiac arrhythmia. Nature 440:463-469, Webster R, Leishman D, Walker D. 2002; Towards a drug concentration effect relationship for QT prolongation and torsades de pointes. Curr. Opin. Drug Discov. Devel. 5:116-26).
The calculation of hERG IC20/TLR7/8/9 IC50 below serves as early selectivity index to assess hERG liability.
On the technique in general: Block of hERG is tested as a sign of cardiac risk.

Turning to `C[C@@H]1CN(c2ccc(C#N)c3ncccc23)C[C@@H]2CN(c3cncc4c3CCNC4)CCN21` [Example 44, 5-[(4R,9aR)-4-methyl-8-(5,6,7,8-tetrahydro-2,7-naphthyridin-4-yl)-3,4,6,7,9,9a-hexahydro-1H-pyrazino[1,2-a]pyrazin-2-yl]quinoline-8-carbonitrile], the IC50 on human TLR9 was 0.05 µM.

What is called IC20 is the concentration needed for an effect of 20%. Read a high IC20 as weaker potency. For the compound `C[C@@H]1CN(c2ccc(C#N)c3ncccc23)C[C@H]2CN(c3cncc4c3CCNC4)CCN21` [Example 42, 5-[(4R,9aS)-4-methyl-8-(5,6,7,8-tetrahydro-2,7-naphthyridin-4-yl)-3,4,6,7,9,9a-hexahydro-1H-pyrazino[1,2-a]pyrazin-2-yl]quinoline-8-carbonitrile], the figures for the IC50 on human TLR9 and at hERG channel were 0.05 µM and over 10 µM, respectively. Further, at hERG channel, the IC20 turned out to be 4.35 µM.

Regarding `[2H]c1ccc2c(N3C[C@@H]4CN(c5ncc(N6CC7(CC(N)C7)C6)cc5C)CCN4[C@H](C)C3)ccc(C#N)c2n1` [Example 101, 5-[(4R,9aR)-8-[5-(6-amino-2-azaspiro[3.3]heptan-2-yl)-3-methyl-2-pyridyl]-4-methyl-3,4,6,7,9,9a-hexahydro-1H-pyrazino[1,2-a]pyrazin-2-yl]-2-deuterio-quinoline-8-carbonitrile], the IC50 at human TLR9 worked out at 0.081 µM.

With `C[C@@H]1CN(c2ccc(C#N)c3ncccc23)C[C@H]2CN(c3cccc4c3CCNC4)CCN21` (relative stereo) [Example 47], the IC50 at human TLR9 was found to be 0.117 µM.

As to `[2H]c1ccc2c(N3C[C@@H]4CN(c5ncc(N6CCOC[C@H](N)C6)cc5C)CCN4[C@@H](C)C3)ccc(C#N)c2n1` [Example 110, 5-[(4S,9aR)-8-[5-[(6R)-6-amino-1,4-oxazepan-4-yl]-3-methyl-2-pyridyl]-4-methyl-3,4,6,7,9,9a-hexahydro-1H-pyrazino[1,2-a]pyrazin-2-yl]-2-deuterio-quinoline-8-carbonitrile], the IC50 at human TLR9 stood at 0.07 µM.

Turning to `C[C@@H]1CN(c2ccc(C#N)c3ncccc23)C[C@@H]2CN(CCc3ccc(N4C[C@@H](N)[C@H](F)C4)nc3)CCN21` [Example 18, 5-[(4R,9aS)-8-[2-[6-[(3R,4R)-3-amino-4-fluoro-pyrrolidin-1-yl]-3-pyridyl]ethyl]-4-methyl-3,4,6,7,9,9a-hexahydro-1H-pyrazino[1,2-a]pyrazin-2-yl]quinoline-8-carbonitrile], the IC50 on human TLR9 turned out to be 0.065 µM.

As for `[2H]c1ccc2c(N3C[C@@H]4CN(CCc5ccc(N6C[C@@H](N)[C@@H](F)C6)nc5)CCN4[C@H](C)C3)ccc(C#N)c2n1` [Example 63, 5-[(4R,9aS)-8-[2-[6-[(3R,4S)-3-amino-4-fluoro-pyrrolidin-1-yl]-3-pyridyl]ethyl]-4-methyl-3,4,6,7,9,9a-hexahydro-1H-pyrazino[1,2-a]pyrazin-2-yl]-2-deuterio-quinoline-8-carbonitrile], the IC50 at human TLR9 came to 0.078 µM.

As for `C[C@@H]1CN(c2ccc(C#N)c3ncccc23)C[C@@H]2CN(CCc3ccc(N4C[C@@H](N)[C@@H](F)C4)nc3)CCN21` [Example 17, 5-[(4R,9aS)-8-[2-[6-[(3R,4S)-3-amino-4-fluoro-pyrrolidin-1-yl]-3-pyridyl]ethyl]-4-methyl-3,4,6,7,9,9a-hexahydro-1H-pyrazino[1,2-a]pyrazin-2-yl]quinoline-8-carbonitrile], at human TLR9, the IC50 was found to be 0.047 µM. On hERG channel, this compound displayed an IC50 of over 20 µM and an IC20 of over 10 µM.
